According to patent US9938273B2 (Plexxikon Inc., priority 2015, dated 2018):

Target: T1, FLT3-D835Y (Homo sapiens, UniProt P36888, D835Y)
T1 construct: purchased Invitrogen PV3967
T1 sequence (P36888 27-993 D835Y): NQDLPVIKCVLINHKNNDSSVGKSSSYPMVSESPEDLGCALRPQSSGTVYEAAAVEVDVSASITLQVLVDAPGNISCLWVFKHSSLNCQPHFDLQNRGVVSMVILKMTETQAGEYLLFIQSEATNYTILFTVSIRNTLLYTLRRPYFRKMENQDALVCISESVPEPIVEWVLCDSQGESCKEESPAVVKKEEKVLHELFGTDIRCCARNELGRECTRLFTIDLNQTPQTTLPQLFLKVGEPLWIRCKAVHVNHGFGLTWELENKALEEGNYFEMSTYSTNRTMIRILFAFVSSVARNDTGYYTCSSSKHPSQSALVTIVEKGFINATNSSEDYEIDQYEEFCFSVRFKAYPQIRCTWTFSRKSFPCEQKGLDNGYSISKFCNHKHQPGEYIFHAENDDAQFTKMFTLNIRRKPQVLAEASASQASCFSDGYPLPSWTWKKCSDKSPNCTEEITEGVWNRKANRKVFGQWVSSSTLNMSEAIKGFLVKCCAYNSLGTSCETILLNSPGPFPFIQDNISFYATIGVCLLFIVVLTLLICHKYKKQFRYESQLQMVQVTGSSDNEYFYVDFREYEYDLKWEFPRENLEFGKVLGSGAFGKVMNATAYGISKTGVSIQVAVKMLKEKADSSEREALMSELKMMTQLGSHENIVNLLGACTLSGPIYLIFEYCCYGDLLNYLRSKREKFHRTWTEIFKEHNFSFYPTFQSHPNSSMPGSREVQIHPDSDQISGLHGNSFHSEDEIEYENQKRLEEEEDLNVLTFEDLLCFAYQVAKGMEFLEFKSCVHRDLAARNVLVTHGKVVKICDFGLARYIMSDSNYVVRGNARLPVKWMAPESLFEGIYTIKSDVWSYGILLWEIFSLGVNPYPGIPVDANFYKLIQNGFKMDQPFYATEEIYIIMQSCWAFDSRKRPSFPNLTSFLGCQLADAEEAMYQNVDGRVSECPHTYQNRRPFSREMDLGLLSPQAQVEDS
Assay: AlphaScreen kinase assay with recombinant enzyme, FLT3-D835Y
Type: biochemical
Settings: 8pt, GMean
Protocol: In order to determine the effect of compounds on FLT3 catalytic activity, kinase assays using recombinant enzymes and AlphaScreen® technology have been established. The catalytic activity of c-kit activity was also measured to determine selectivity of the compounds. When the kinases are catalytically active, they phosphorylate a biotinylated peptide substrate on tyrosine residues. Using AlphaScreen® technology, the ability of the compounds to affect the catalytic activity of the kinases can be measured quantitatively. The peptide substrate is immobilized by the AlphaScreen® Streptavidin Donor beads and, upon phosphorylation by a tyrosine kinase, can bind to AlphaScreen® Anti-Phosphotyrosine (PY20) Acceptor beads. Upon excitation of these beads with laser light at 680 nm, singlet oxygen is produced. This singlet oxygen is rapidly quenched, unless the AlphaScreen® Anti-Phosphotyrosine (PY20) Acceptor beads are in close proximity, in which case a proximity signal can be measured at 580 nm. In the presence of catalytic activity, there is a very strong proximity signal. Selective kinase inhibitors affect a decrease in this proximity signal through a decrease in tyrosine phosphorylation of the peptide substrate.
The assay was performed as summarized below.
Poly (Glu4-Tyr) Peptide, biotin conjugate [Biotin-GG(EEEEY)10EE] (SEQ ID NO: 4)
Final concentration=30 nM
Final concentration for IC50 determination=10 μM (FLT3-D835Y or FLT3-ITD) or 100 μM (c-KIT)
AlphaScreen® Phosphotyrosine (PY20) Assay Kit
Final concentration=10 μg/mL
Dilute compounds in DMSO to 20× final concentration.
Add 1 μl of compound to each well of 384 well reaction plate (Perkin Elmer #6005359).
Mix enzyme and Poly (Glu4-Tyr) Peptide substrate at 1.33× final concentration in assay buffer.
Mix ATP at 5× final concentration in assay buffer.
Add 15 μL enzyme/substrate mixture to the reaction plate.
Add 4 μL of ATP to the reaction plate.
Mix Streptavidin Donor beads at 6× final concentration in Stop/Detection buffer.
Add 5 μL Streptavidin Donor beads to the reaction plate. Centrifuge 1 minute, shake to mix, and incubate at room temperature for 20 minutes.
Mix Anti-Phosphotyrosine (PY20) Acceptor beads at 6× final concentration in Stop/Detection buffer.
Add 5 μL Anti-Phosphotyrosine (PY20) beads to the reaction plate.
Centrifuge 1 minute, shake to mix, and incubate at room temperature for 60 minutes.
Read plate on Wallac EnVision™ 2103 Multilabel Reader.

| SMILES | IC50 |
| --- | --- |
| O=C(c1cccc(-c2cnc3[nH]c(-c4ccccc4)cc3c2)n1)N1CCC(F)(F)C1 [Compound P-0093, (3,3-difluoropyrrolidin-1-yl)-[6-(2-phenyl-1H-pyrrolo[2,3-b]pyridin-5-yl)-2-pyridyl]methanone] | 0.0001 to 10 µM |
| COC1CCN(C(=O)c2cccc(-c3cnc4[nH]c(-c5ccccc5)cc4c3)n2)C1 (stereo not drawn) [Compound P-0095, (3-methoxypyrrolidin-1-yl)-[6-(2-phenyl-1H-pyrrolo[2,3-b]pyridin-5-yl)-2-pyridyl]methanone] | 0.0001 to 10 µM |
| CNC(=O)C1CCN(C(=O)c2cccc(-c3cnc4[nH]c(-c5ccccc5)cc4c3)n2)C1 (stereo not drawn) [Compound P-0096, N-methyl-1-[6-(2-phenyl-1H-pyrrolo[2,3-b]pyridin-5-yl)pyridine-2-carbonyl]pyrrolidine-3-carboxamide] | 0.0001 to 10 µM |
| O=C(c1cccc(-c2cnc3[nH]c(-c4ccccc4)cc3c2)n1)N1CCC(n2ccnc2)C1 (stereo not drawn) [Compound P-0097, (3-imidazol-1-ylpyrrolidin-1-yl)-[6-(2-phenyl-1H-pyrrolo[2,3-b]pyridin-5-yl)-2-pyridyl]methanone] | 0.0001 to 10 µM |
| N#CCCNC(=O)c1cccc(-c2cnc3[nH]c(-c4ccccc4)cc3c2)n1 [Compound P-0099, N-(2-cyanoethyl)-6-(2-phenyl-1H-pyrrolo[2,3-b]pyridin-5-yl)pyridine-2-carboxamide] | 0.0001 to 10 µM |
| CC(C)(C#N)CNC(=O)c1cccc(-c2cnc3[nH]c(-c4ccccc4)cc3c2)n1 [Compound P-0100, N-(2-cyano-2-methyl-propyl)-6-(2-phenyl-1H-pyrrolo[2,3-b]pyridin-5-yl)pyridine-2-carboxamide] | 0.0001 to 10 µM |
| N#CC1CCN(C(=O)c2cccc(-c3cnc4[nH]c(-c5ccccc5)cc4c3)n2)C1 (stereo not drawn) [Compound P-0105, 1-[6-(2-phenyl-1H-pyrrolo[2,3-b]pyridin-5-yl)pyridine-2-carbonyl]pyrrolidine-3-carbonitrile] | 0.0001 to 10 µM |
| CS(=O)(=O)N1CCC(NS(=O)(=O)c2cccc(-c3cnc4[nH]c(-c5ccccc5)cc4c3)n2)C1 (stereo not drawn) [Compound P-0107, N-(1-methylsulfonylpyrrolidin-3-yl)-6-(2-phenyl-1H-pyrrolo[2,3-b]pyridin-5-yl)pyridine-2-sulfonamide] | 0.0001 to 10 µM |
| N#C[C@H]1CCN(C(=O)c2cccc(-c3cnc4[nH]c(-c5ccccc5)cc4c3)n2)C1 [Compound P-0117, (3S)-1-[6-(2-phenyl-1H-pyrrolo[2,3-b]pyridin-5-yl)pyridine-2-carbonyl]pyrrolidine-3-carbonitrile] | 0.0001 to 10 µM |
| CN(CCC#N)C(=O)c1cccc(-c2cnc3[nH]c(-c4ccccc4)cc3c2)n1 [Compound P-0119, N-(2-cyanoethyl)-N-methyl-6-(2-phenyl-1H-pyrrolo[2,3-b]pyridin-5-yl)pyridine-2-carboxamide] | 0.0001 to 10 µM |
| N#CC1CCN(C(=O)c2cccc(-c3cnc4[nH]c(C5=CCCCC5)cc4c3)n2)C1 (stereo not drawn) [Compound P-0120, 1-[6-[2-(cyclohexen-1-yl)-1H-pyrrolo[2,3-b]pyridin-5-yl]pyridine-2-carbonyl]pyrrolidine-3-carbonitrile] | 0.0001 to 10 µM |
| N#CC1CCN(S(=O)(=O)c2cccc(-c3cnc4[nH]c(-c5ccccc5)cc4c3)n2)C1 (stereo not drawn) [Compound P-0121, 1-[[6-(2-phenyl-1H-pyrrolo[2,3-b]pyridin-5-yl)-2-pyridyl]sulfonyl]pyrrolidine-3-carbonitrile] | 0.0001 to 10 µM |
| N#CCCNC(=O)c1cccc(-c2cnc3[nH]c(-c4ccccc4)c(Cl)c3c2)n1 [Compound P-0125, 6-(3-chloro-2-phenyl-1H-pyrrolo[2,3-b]pyridin-5-yl)-N-(2-cyanoethyl)pyridine-2-carboxamide] | 0.0001 to 10 µM |
| CC(C)(C#N)CNC(=O)c1cccc(-c2cnc3[nH]c(-c4ccccc4)c(Br)c3c2)n1 [Compound P-0126, 6-(3-bromo-2-phenyl-1H-pyrrolo[2,3-b]pyridin-5-yl)-N-(2-cyano-2-methyl-propyl)pyridine-2-carboxamide] | 0.0001 to 10 µM |
| CC(C)(C#N)CNC(=O)c1cccc(-c2cnc3[nH]c(-c4ccccc4)c(I)c3c2)n1 [Compound P-0127, N-(2-cyano-2-methyl-propyl)-6-(3-iodo-2-phenyl-1H-pyrrolo[2,3-b]pyridin-5-yl)pyridine-2-carboxamide] | 0.0001 to 10 µM |
| Cc1cc(C#N)ccc1-c1cc2cc(-c3cccc(C(=O)N4CCC(C#N)C4)n3)cnc2[nH]1 (stereo not drawn) [Compound P-0130, 1-[6-[2-(4-cyano-2-methyl-phenyl)-1H-pyrrolo[2,3-b]pyridin-5-yl]pyridine-2-carbonyl]pyrrolidine-3-carbonitrile] | 0.0001 to 10 µM |
| N#Cc1cccc(-c2cc3cc(-c4cccc(C(=O)N5CCC(C#N)C5)n4)cnc3[nH]2)c1 (stereo not drawn) [Compound P-0133, 1-[6-[2-(3-cyanophenyl)-1H-pyrrolo[2,3-b]pyridin-5-yl]pyridine-2-carbonyl]pyrrolidine-3-carbonitrile] | 0.0001 to 10 µM |
| CC(C)(C)OC(=O)N1CC=C(c2cc3cc(-c4cccc(C(=O)N5CCC(C#N)C5)n4)cnc3[nH]2)C1 (stereo not drawn) [Compound P-0135, tert-butyl 3-[5-[6-(3-cyanopyrrolidine-1-carbonyl)-2-pyridyl]-1H-pyrrolo[2,3-b]pyridin-2-yl]-2,5-dihydropyrrole-1-carboxylate] | 0.0001 to 10 µM |
| N#CC1(NC(=O)c2cccc(-c3cnc4[nH]c(-c5ccccc5)c(Cl)c4c3)n2)CC1 [Compound P-0139, 6-(3-chloro-2-phenyl-1H-pyrrolo[2,3-b]pyridin-5-yl)-N-(1-cyanocyclopropyl)pyridine-2-carboxamide] | 0.0001 to 10 µM |
| N#CC1CCN(C(=O)c2cccc(-c3cnc4[nH]c(C5=CCOCC5)c(Cl)c4c3)n2)C1 (stereo not drawn) [Compound P-0142, 1-[6-[3-chloro-2-(3,6-dihydro-2H-pyran-4-yl)-1H-pyrrolo[2,3-b]pyridin-5-yl]pyridine-2-carbonyl]pyrrolidine-3-carbonitrile] | 0.0001 to 10 µM |
| N#CCCNC(=O)c1cccc(-c2cnc3[nH]c(-c4ccccc4)c(I)c3c2)n1 [Compound P-0143, N-(2-cyanoethyl)-6-(3-iodo-2-phenyl-1H-pyrrolo[2,3-b]pyridin-5-yl)pyridine-2-carboxamide] | 0.0001 to 10 µM |
| N#CC1(CNC(=O)c2cccc(-c3cnc4[nH]c(-c5ccccc5)c(Cl)c4c3)n2)CC1 [Compound P-0148, 6-(3-chloro-2-phenyl-1H-pyrrolo[2,3-b]pyridin-5-yl)-N-[(1-cyanocyclopropyl)methyl]pyridine-2-carboxamide] | 0.0001 to 10 µM |
| O=C(NC1(C(F)(F)F)CCCC1)c1cccc(-c2cnc3[nH]c(-c4ccccc4)cc3c2)n1 [Compound P-0149, 6-(2-phenyl1H-pyrrolo[2,3-b]pyridin-5-yl)-N-[1-(trifluoromethyl)cyclopentyl]pyridine-2-carboxamide] | 0.0001 to 10 µM |
| O=C(NC1(CO)CC1)c1cccc(-c2cnc3[nH]c(-c4ccccc4)cc3c2)n1 [Compound P-0151, N-[1-(hydroxymethyl)cyclopropyl]-6-(2-phenyl-1H-pyrrolo[2,3-b]pyridin-5-yl)pyridine-2-carboxamide] | 0.0001 to 10 µM |
